# According to US20100160208A1, “Pharmaceutical composition” (Antisense Pharma GmbH, priority 2003, published 2010):
# Experiments:
# [1] = system: glioma cell line A-172; assay: Cell-mediated cytotoxicity (CARE-LASS) assay, LAK effector cells on A-172 target cells; type: cell-based; details: Seq. Id. No. 30 5 microM
# Protocol: (§1) Cell-mediated cytotoxicity was quantified by the CARE-LASS assay (Lichtenfels et al. 1994) using the NSCLC (non small cell lung carcinoma cell) line NCI-H661, the glioma cell line A-172, and the pancreatic cancer cell line Hup-T3 as target cells. NCI-H661 cells were pretreated with 5 μM TGF (transforming growth factor)-beta 1 specific antisense phosphorothioate oligodeoxynucleotide (PTO) Seq. Id. No. 14. A-172 and Hup-T3 cells were pretreated with 5 μM TGF-beta 2 specific antisense phosphorothioate oligodeoxynucleotide Seq. Id. No. 30 in medium at 5% CO2 and 37° C. for 3 days according to the cell line suppliers' instructions. Additionally, for Hup-T3 cells 3 μg/ml Lipofectin® were used to enhance cellular uptake of the PTO. Untreated cells and cells treated with 3 μg/ml Lipofectin® were used as controls.
# Lymphokine activated killer cells (LAK cells) were used as effector cells. LAK cells were generated by a 3 day pretreatment of 5×10^6 PBMC from healthy volunteers with 10 ng/ml rh IL-2 (recombinant human interleukin 2) in 4 ml RPMI 1640 medium supplemented with 10% fetal calf serum at 5% CO2 and 37° C. One part of the effector cells was incubated additionally with rh TGF-[…] to mimic the presence of tumor cells ([…] rh TGF-[…]1 for NCI-H661, […] rh TGF-[…]2 for A-172 and Hup-T3). The other part of cells was incubated without additional treatment.
# Effector cells were incubated with the target cells with and without cytostatic drugs for 4 h. The supraaditive effect respectively the inhibition was calculated by subtracting the specific cell lysis, of the control from the specific cell lysis of the chemotherapeutic agent. Taking into account the sign this difference is summed up with the specific lysis of the inhibitor of TGF-beta, as depicted in the figures. In case the specific lysis of the combination of a chemotherapeutic agent with the TGF-beta inhibitor was higher than this sum, this was interpreted as supraaditive effect. In case the specific lysis of this combination was smaller than the sum this was interpreted as inhibition.
# [2] = system: pancreatic cancer cell line Hup-T3; assay: Cell-mediated cytotoxicity (CARE-LASS) assay, LAK effector cells on Hup-T3 target cells; type: cell-based; details: FIG. 6; effector:target 10:1; Seq. Id. No. 30 5 microM; gemzar 20 μg/ml
# Protocol: Cell-mediated cytotoxicity was quantified by the […] assay (Lichtenfels et al. 1994) using the NSCLC (non small cell lung carcinoma cell) line NCI-H661, the glioma cell line A-172, and the pancreatic cancer cell line Hup-T3 as target cells. […] Id. No. 14. […] Id. […] Additionally, for Hup-T3 cells 3 μg/ml Lipofectin® were used to enhance cellular uptake of the PTO. Untreated cells and cells treated with 3 μg/ml Lipofectin® were used as controls. Lymphokine activated killer cells (LAK cells) were used as effector cells. […] The other part of cells was incubated without additional treatment. Effector cells were incubated with the target cells with and without cytostatic drugs for 4 h. The supraaditive effect respectively the inhibition was calculated by subtracting the specific cell lysis, of the control from the specific cell lysis of the chemotherapeutic agent. Taking into account the sign this difference is summed up with the specific lysis of the inhibitor of TGF-beta, as depicted in the figures. In case the specific lysis of the combination of a chemotherapeutic agent with the TGF-beta inhibitor was higher than this sum, this was interpreted as supraaditive effect. In case the specific lysis of this combination was smaller than the sum this was interpreted as inhibition.
# [3] = system: NSCLC (non small cell lung carcinoma cell) line NCI-H661; assay: Cell-mediated cytotoxicity (CARE-LASS) assay, LAK effector cells on NCI-H661 target cells; type: cell-based; details: FIG. 9; effector:target 1.25:1; Seq. Id. No. 14 5 microM; taxotere 0.37 μg/ml
# Protocol: as §1
# Lymphokine activated killer cells (LAK cells) were used as effector cells. LAK cells were generated by a 3 day pretreatment of 5×10^6 PBMC from healthy volunteers with 10 ng/ml rh IL-2 (recombinant human interleukin 2) in 4 ml RPMI 1640 medium supplemented with 10% fetal calf serum at 5% CO2 and 37° C. […]
# Effector cells were incubated with the target cells with and without cytostatic drugs for 4 h. The supraaditive effect respectively the inhibition was calculated by subtracting the specific cell lysis, of the control from the specific cell lysis of the chemotherapeutic agent. […]
# [4] = system: glioblastoma, WHO grade IV; assay: Clinical phase I/II study, intratumoral Seq. Id. No. 30 in patients with glioblastoma; type: in vivo, human
# Excerpt: (§2) Clinical studies represented herein were primarily designed as safety studies and were approved by the local ethic committees and performed in accordance with the current international declaration of Helsinki for human experimentation and GCP and had to sign a written informed consent prior to recruitment.
# (§3) The treatment with the antineoplastic agent followed routine schedules if nothing else is mentioned. Before the treatment with an TGF-beta antagonist, the antisense oligonucleotide of TGF-beta, with Seq. No. 30 the patients were selected according to the following criteria.
# (§4) Patients had high grade gliom, either anaplastic astrocytome, WHO grade III, or glioblastoma, WHO grade IV, refractory to or recurrent after standard therapy (surgery, radiotherapy and different therapies with antineoplastic substances). Patients had not received antineoplastic agents within 10 days prior to the administration of the antagonist. Patients were between 18 and 75 years old. Karnofsky performance status (KPS) was at least 70%. Patients with clinically significant acute infections, cardiovascular abnormalities or poorly controlled seizures and pregnant and lactating females were excluded.
# Surgical planning was based on computer tomography or magnetic resonance images. The perforated part of the catheter was placed in the solid, enhancing area of the tumor. Ventricles, cysts, resection cavities from prior surgical interventions, blood vessels and eloquent brain areas had to be avoided by the catheter trajectory. The catheter was introduced through a standard burr hole into the center of the largest tumor lesion. The distal end of the catheter was passed several centimetres under the galea through the skin and filled with saline. TGF-beta 2 specific antisense oligonucleotide with Seq. Id. No. 30 was administered intratumorally as a continuous high-flow microperfusion using an external pump system, Graseby 3200 (Smith Medical, London, GBM). The application system was removed after the end of the infusion. For safety assessment patients were followed up for 28 days. […]
# [5] = system: anaplastic astrocytoma, WHO grade III; assay: Clinical phase I/II study, intratumoral Seq. Id. No. 30 in patients with anaplastic astrocytoma; type: in vivo, human
# Excerpt: as §2, §3, §4
# Surgical planning was based on computer tomography or magnetic resonance images. The perforated part of the catheter was placed in the solid, enhancing area of the tumor. Ventricles, cysts, resection cavities from prior surgical interventions, blood vessels and eloquent brain areas had to be avoided by the catheter trajectory. The catheter was introduced through a standard burr hole into the center of the largest tumor lesion. The distal end of the catheter was passed several centimetres under the galea through the skin and filled with saline. TGF-beta 2 specific antisense oligonucleotide with Seq. Id. No. 30 was administered intratumorally as a continuous high-flow microperfusion using an external pump system, Graseby 3200 (Smith Medical, London, GBM). The application system was removed after the end of the infusion. For safety assessment patients were followed up for 28 days. Post-study MRI and survival data until death were collected by the investigators.
# Comparison of survival data of patients treated with antineoplastic agents in combination with antagonists of factors negatively influencing the immune system (here: an antisense oligonucleotide of TGF-beta with the sequence Id. No. 30) to literature data for treatment with antineoplastic alone. Survival time is given from start of first chemotherapy after tumor recurrence. Median overall survival time of all patients treated with antineoplastic agents and TGF-beta 2 specific antisense oligonucleotide with Seq. Id. No. 30 (anaplastic astrocytom: 8 patients, glioblastoma, 23 patients) are compared to the most current literature data (Theodosopoulos, P. V. et al. 2001).
# Reduction of tumor volumes of patients 04 and 17 was more than 80%. Tumor volume was assessed by measurement of the largest cross-sectional diameter of the enhancing lesion in the first layer and the largest cross-sectional diameter perpendicular to the first in the same plane and layer. For the third dimension, the largest cross-sectional diameter of all further planes perpendicular to the first one was determined.
# [6] = FIG. 4, effector:target 20:1, BCNU 4 μM
# [7] = FIG. 5, effector:target 1.25:1, CCNU 10 μM
# [8] = FIG. 10, effector:target 5:1, procarbacine 3 nmol/ml
# [9] = FIG. 7, effector:target 10:1, temozolomide 50 μM
# [10] = FIG. 8, effector:target 2.5:1, vincristine 0.04 μmol/ml
# [11] = calculated after start of chemotherapy, patients treated with antineoplastic agents and Seq. Id. No. 30
# [12] = oligonucleotide following chemotherapy (mainly temozolomide)
compound,measurement,setting,value
"O=NN(CCCl)C(=O)NCCCl [BCNU, N,N′-bis(2-chlorethyl)-N-nitroso-urea, reference compound]",specific lysis of tumor cells,[1]; [6],15.6%
"O=NN(CCCl)C(=O)NC1CCCCC1 [CCNU, 1-(2-Chloroethyl)-3-cyclohexyl-1-nitrosourea, reference compound]",specific lysis of tumor cells,[1]; [7],0.5%
"Nc1ccn([C@@H]2O[C@H](CO)[C@@H](O)C2(F)F)c(=O)n1 [gemzar, reference compound]",specific lysis of tumor cells,[2],34.5%
"CNNCc1ccc(C(=O)NC(C)C)cc1 [procarbacine, reference compound]",specific lysis of tumor cells,[1]; [8],6.1%
"CC(=O)O[C@@]12CO[C@@H]1C[C@H](O)[C@@]1(C)C(=O)[C@H](O)C3=C(C)[C@@H](OC(=O)[C@H](O)[C@@H](NC(=O)OC(C)(C)C)c4ccccc4)C[C@@](O)([C@@H](OC(=O)c4ccccc4)[C@H]21)C3(C)C [taxotere, reference compound]",specific lysis of tumor cells,[3],30.5%
"Cn1nnc2c(C(N)=O)ncn2c1=O [temozolomide, 3,4-dihydro-3-methyl-4-oxoimidazo->5,1d′1,2,3,4-tetrazin-8-carboximide, reference compound]",specific lysis of tumor cells,[1]; [9],31.3%
"CC[C@]1(O)C[C@H]2CN(CCc3c([nH]c4ccccc34)[C@@](C(=O)OC)(c3cc4c(cc3OC)N(C=O)[C@H]3[C@@](O)(C(=O)OC)[C@H](OC(C)=O)[C@]5(CC)C=CCN6CC[C@]43[C@@H]65)C2)C1 [vincristine, reference compound]",specific lysis of tumor cells,[1]; [10],12.6%
CGGCATGTCTATTTTGTA [Seq. Id. No. 30],specific lysis of tumor cells,[1]; [6],29.4%
same,specific lysis of tumor cells,[1]; [7],4.4%
same,specific lysis of tumor cells,[1]; [9],39.2%
same,specific lysis of tumor cells,[1]; [10],13.9%
same,specific lysis of tumor cells,[2],59.5%
same,median overall survival time,"[4]; FIG. 3, Seq. Id. No. 30 following temozolomide, from start of first chemotherapy after tumor recurrence, 10 patients",45.1 weeks
same,median overall survival in our study,[4]; [11],42.4 weeks
same,median overall survival times,[4]; [12],45 weeks
same,tumor response,"[5]; 1. Example, one patient, 21 months after first application, assessed by 3 independent specialists",complete response
same,overall survival after first recurrence,"[5]; 1. Example, one patient, one cycle 10 μM, 4 μL/min, 1.42 mg in 4 days intratumorally after ACNU/tenoposide, temozolomide, Caelyx",195 weeks
same,overall survival after diagnosis of anaplastic astrocytoma,"[5]; 1. Example, one patient, one cycle intratumorally after prior chemotherapy",208 weeks
same,tumor reduction,"[5]; 2. Example, one patient, magnetic resonance image 19.4 months after start of oligonucleotide treatment, central reading, partial response",83%
same,median overall survival time,"[5]; FIG. 3, Seq. Id. No. 30 following temozolomide, from start of first chemotherapy after tumor recurrence, 3 patients",146.6 weeks
same,mean overall survival,[5]; all anaplastic astrocytoma patients,90 weeks
same,median overall survival in our study,[5]; [11],147 weeks
same,mean overall survival,[5]; combination of Seq. Id. No. 30 and at least one further antineoplastic agent (e.g. temozolomide),146.6 weeks
same,median overall survival times,[5]; [12],about 147 weeks
same,Reduction of tumor volumes,[5]; patients 04 and 17,more than 80%
CTGATGTGTTGAAGAACA (chemistry not given here) [Seq. Id. No. 14],specific lysis of tumor cells,[1]; [8],16.4%
same,specific lysis of tumor cells,[3],65.3%
